# Measurements taken from the supplement of paper PMC10307832.
# Legend:
# Experiment in all cases: relative viability (nuclei count vs DMSO), 5 days (fraction); higher = more cells survive
# NCI-H650 = tested on: NCI-H650
# Method in brief: (§1)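 Dosing by pin tool came one day after lung cancer cell lines were seeded in 1536-well plates, using either one drug or a fixed anchor-drug dose plus five library-drug doses (not always all listed) in √10 steps. After 5 days, nuclei were counted on 4× images. Relative viability is treated-well nuclei count divided by vehicle-well nuclei count, and values are medians of duplicate plates.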
# NCI-H1355 = tested on: NCI-H1355
# Method in brief: as §1
# NCI-H838 = tested on: NCI-H838
# Method in brief: as §1
# NCI-H2023 = tested on: NCI-H2023
# Method in brief: as §1
# EPLC-272H = tested on: EPLC-272H
# Method in brief: as §1
# NCI-H1993 = tested on: NCI-H1993
# Method in brief: as §1
# PC-14 = tested on: PC-14
# Method in brief: as §1
# HARA = tested on: HARA
# Method in brief: as §1
# HCC-15 = tested on: HCC-15
# Method in brief: as §1
# LC-2-ad = tested on: LC-2-ad
# Method in brief: as §1
# ABC-1 = tested on: ABC-1
# Method in brief: as §1
# HCC-78 = tested on: HCC-78
# Method in brief: as §1
# COR-L23 = tested on: COR-L23
# Method in brief: as §1
# NCI-H1915 = tested on: NCI-H1915
# Method in brief: as §1
# NCI-H358 = tested on: NCI-H358
# Method in brief: as §1
# SW 1573 = tested on: SW 1573
# Method in brief: as §1
# NCI-H2347 = tested on: NCI-H2347
# Method in brief: as §1
# NCI-H2342 = tested on: NCI-H2342
# Method in brief: as §1
# NCI-H2126 = tested on: NCI-H2126
# Method in brief: as §1
# NCI-H2085 = tested on: NCI-H2085
# Method in brief: as §1
# UMC-11 = tested on: UMC-11
# Method in brief: as §1
# NCI-H1651 = tested on: NCI-H1651
# Method in brief: as §1
# LU99A = tested on: LU99A
# Method in brief: as §1
compound,measurement,setting,value
NC(=O)Nc1cc(-c2cccc(F)c2)sc1C(=O)N[C@H]1CCCNC1 [AZD7762] + Nc1ncn([C@H]2C[C@H](O)[C@@H](CO)O2)c(=O)n1 [Decitabine] (partner 2 µM),relative viability,NCI-H650; first compound 0.01 µM,0.359
same,relative viability,NCI-H650; first compound 0.03162 µM,0.404
same,relative viability,NCI-H650; first compound 0.1 µM,0.437
same,relative viability,NCI-H650; first compound 0.3162 µM,0.493
same,relative viability,NCI-H650; first compound 1 µM,0.493
same,relative viability,NCI-H1355; first compound 0.01 µM,0.352
same,relative viability,NCI-H1355; first compound 0.03162 µM,0.385
same,relative viability,NCI-H1355; first compound 0.1 µM,0.317
same,relative viability,NCI-H1355; first compound 0.3162 µM,0.407
same,relative viability,NCI-H1355; first compound 1 µM,0.475
same,relative viability,NCI-H838; first compound 0.01 µM,0.661
same,relative viability,NCI-H838; first compound 0.03162 µM,0.568
same,relative viability,NCI-H838; first compound 0.1 µM,0.531
same,relative viability,NCI-H838; first compound 0.3162 µM,0.454
same,relative viability,NCI-H838; first compound 1 µM,0.283
same,relative viability,NCI-H2023; first compound 0.01 µM,0.249
same,relative viability,NCI-H2023; first compound 0.03162 µM,0.25
same,relative viability,NCI-H2023; first compound 0.1 µM,0.179
same,relative viability,NCI-H2023; first compound 0.3162 µM,0.121
same,relative viability,NCI-H2023; first compound 1 µM,0.0986
same,relative viability,EPLC-272H; first compound 0.01 µM,0.352
same,relative viability,EPLC-272H; first compound 0.03162 µM,0.445
same,relative viability,EPLC-272H; first compound 0.1 µM,0.356
same,relative viability,EPLC-272H; first compound 0.3162 µM,0.421
same,relative viability,EPLC-272H; first compound 1 µM,0.239
same,relative viability,NCI-H1993; first compound 0.01 µM,0.626
same,relative viability,NCI-H1993; first compound 0.03162 µM,0.606
same,relative viability,NCI-H1993; first compound 0.1 µM,0.657
same,relative viability,NCI-H1993; first compound 0.3162 µM,0.597
same,relative viability,NCI-H1993; first compound 1 µM,0.638
same,relative viability,PC-14; first compound 0.01 µM,0.234
same,relative viability,PC-14; first compound 0.03162 µM,0.225
same,relative viability,PC-14; first compound 0.1 µM,0.166
same,relative viability,PC-14; first compound 0.3162 µM,0.137
same,relative viability,PC-14; first compound 1 µM,0.0898
same,relative viability,HARA; first compound 0.01 µM,0.633
same,relative viability,HARA; first compound 0.03162 µM,0.507
same,relative viability,HARA; first compound 0.1 µM,0.66
same,relative viability,HARA; first compound 0.3162 µM,0.539
same,relative viability,HARA; first compound 1 µM,0.211
same,relative viability,HCC-15; first compound 0.01 µM,0.565
same,relative viability,HCC-15; first compound 0.03162 µM,0.587
same,relative viability,HCC-15; first compound 0.1 µM,0.622
same,relative viability,HCC-15; first compound 0.3162 µM,0.553
same,relative viability,HCC-15; first compound 1 µM,0.589
same,relative viability,LC-2-ad; first compound 0.01 µM,0.853
same,relative viability,LC-2-ad; first compound 0.03162 µM,0.901
same,relative viability,LC-2-ad; first compound 0.1 µM,0.796
same,relative viability,LC-2-ad; first compound 0.3162 µM,0.649
same,relative viability,LC-2-ad; first compound 1 µM,0.682
same,relative viability,ABC-1; first compound 0.01 µM,1.07
same,relative viability,ABC-1; first compound 0.03162 µM,1.11
same,relative viability,ABC-1; first compound 0.1 µM,0.989
same,relative viability,ABC-1; first compound 0.3162 µM,0.909
same,relative viability,ABC-1; first compound 1 µM,0.617
same,relative viability,HCC-78; first compound 0.01 µM,0.707
same,relative viability,HCC-78; first compound 0.03162 µM,0.901
same,relative viability,HCC-78; first compound 0.1 µM,0.824
same,relative viability,HCC-78; first compound 0.3162 µM,0.904
same,relative viability,HCC-78; first compound 1 µM,0.622
same,relative viability,COR-L23; first compound 0.01 µM,0.485
same,relative viability,COR-L23; first compound 0.03162 µM,0.535
same,relative viability,COR-L23; first compound 0.1 µM,0.563
same,relative viability,COR-L23; first compound 0.3162 µM,0.35
same,relative viability,COR-L23; first compound 1 µM,0.166
same,relative viability,NCI-H1915; first compound 0.01 µM,0.276
same,relative viability,NCI-H1915; first compound 0.03162 µM,0.297
same,relative viability,NCI-H1915; first compound 0.1 µM,0.294
same,relative viability,NCI-H1915; first compound 0.3162 µM,0.337
same,relative viability,NCI-H1915; first compound 1 µM,0.326
same,relative viability,NCI-H358; first compound 0.01 µM,0.229
same,relative viability,NCI-H358; first compound 0.03162 µM,0.311
same,relative viability,NCI-H358; first compound 0.1 µM,0.38
same,relative viability,NCI-H358; first compound 0.3162 µM,0.343
same,relative viability,NCI-H358; first compound 1 µM,0.224
same,relative viability,SW 1573; first compound 0.01 µM,0.565
same,relative viability,SW 1573; first compound 0.03162 µM,0.523
same,relative viability,SW 1573; first compound 0.1 µM,0.482
same,relative viability,SW 1573; first compound 0.3162 µM,0.324
same,relative viability,SW 1573; first compound 1 µM,0.172
same,relative viability,NCI-H2347; first compound 0.01 µM,0.558
same,relative viability,NCI-H2347; first compound 0.03162 µM,0.656
same,relative viability,NCI-H2347; first compound 0.1 µM,0.725
same,relative viability,NCI-H2347; first compound 0.3162 µM,0.79
same,relative viability,NCI-H2347; first compound 1 µM,0.752
same,relative viability,NCI-H2342; first compound 0.01 µM,0.68
same,relative viability,NCI-H2342; first compound 0.03162 µM,0.731
same,relative viability,NCI-H2342; first compound 0.1 µM,0.805
same,relative viability,NCI-H2342; first compound 0.3162 µM,0.821
same,relative viability,NCI-H2342; first compound 1 µM,0.854
same,relative viability,NCI-H2126; first compound 0.01 µM,0.562
same,relative viability,NCI-H2126; first compound 0.03162 µM,0.628
same,relative viability,NCI-H2126; first compound 0.1 µM,0.656
same,relative viability,NCI-H2126; first compound 0.3162 µM,0.789
same,relative viability,NCI-H2126; first compound 1 µM,0.741
same,relative viability,NCI-H2085; first compound 0.01 µM,0.602
same,relative viability,NCI-H2085; first compound 0.03162 µM,0.693
same,relative viability,NCI-H2085; first compound 0.1 µM,0.672
same,relative viability,NCI-H2085; first compound 0.3162 µM,0.743
same,relative viability,NCI-H2085; first compound 1 µM,0.702
same,relative viability,UMC-11; first compound 0.01 µM,0.728
same,relative viability,UMC-11; first compound 0.03162 µM,0.591
same,relative viability,UMC-11; first compound 0.1 µM,0.598
same,relative viability,UMC-11; first compound 0.3162 µM,0.479
same,relative viability,UMC-11; first compound 1 µM,0.305
same,relative viability,NCI-H1651; first compound 0.01 µM,0.612
same,relative viability,NCI-H1651; first compound 0.03162 µM,0.887
same,relative viability,NCI-H1651; first compound 0.1 µM,0.698
same,relative viability,NCI-H1651; first compound 0.3162 µM,0.692
same,relative viability,NCI-H1651; first compound 1 µM,0.315
same,relative viability,LU99A; first compound 0.01 µM,0.863
same,relative viability,LU99A; first compound 0.03162 µM,0.911
same,relative viability,LU99A; first compound 0.1 µM,0.941
same,relative viability,LU99A; first compound 0.3162 µM,0.958
same,relative viability,LU99A; first compound 1 µM,0.635
